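1) Cells in 96-well plates. 2) Compound, 48 h, 5 concentrations. 3) Linear interpolation between surrounding doses. 4) Unreached endpoint = highest concentration. GI50 marks 50% less growth.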 Active and inactive are the calls of the source. No stated cut-off is given here; in the data, active = GI50 up to about 1.1 µM and inactive = higher.
Experiments:
Assay in all cases: inhibition of tumour cell growth, NCI panel, 48 h
786-0 = test system: 786-0
A498 = test system: A498
A549 = test system: A549
ACHN = test system: ACHN
CAKI-1 = test system: CAKI-1
CCRF-CEM = test system: CCRF-CEM
COLO 205 = test system: COLO 205
DLD-1 = test system: DLD-1
DMS-114 = test system: DMS-114
EKVX = test system: EKVX
HCC 2998 = test system: HCC 2998
HCT-116 = test system: HCT-116
HCT-15 = test system: HCT-15
HL-60 = test system: HL-60
HOP-18 = test system: HOP-18
HOP-62 = test system: HOP-62
HOP-92 = test system: HOP-92
HT-29 = test system: HT-29
IGROV-1 = test system: IGROV-1
K562 = test system: K562
KM-20L2 = test system: KM-20L2
KM12 = test system: KM12
LOX IMVI = test system: LOX IMVI
LXFL 529 = test system: LXFL 529
M14 = test system: M14
M19-MEL = test system: M19-MEL
MOLT-4 = test system: MOLT-4
Malme-3M = test system: Malme-3M
NCI-H226 = test system: NCI-H226
NCI-H23 = test system: NCI-H23
NCI-H460 = test system: NCI-H460
NCI-H522 = test system: NCI-H522
OVCAR-3 = test system: OVCAR-3
OVCAR-4 = test system: OVCAR-4
OVCAR-5 = test system: OVCAR-5
OVCAR-8 = test system: OVCAR-8
RPMI-8226 = test system: RPMI-8226
RXF 393 = test system: RXF 393
RXF 631 = test system: RXF 631
SF-268 = test system: SF-268
SF-295 = test system: SF-295
SF-539 = test system: SF-539
SK-MEL-28 = test system: SK-MEL-28
SK-MEL-2 = test system: SK-MEL-2
SK-MEL-5 = test system: SK-MEL-5
SK-OV-3 = test system: SK-OV-3
SN12C = test system: SN12C
SNB-19 = test system: SNB-19
SNB-75 = test system: SNB-75
SNB-78 = test system: SNB-78
SW-620 = test system: SW-620
TK-10 = test system: TK-10
U-251 = test system: U-251
UACC-257 = test system: UACC-257
UACC-62 = test system: UACC-62
UO-31 = test system: UO-31

SMILES: COc1cc(CC(=O)c2ccc3c(c2)OCO3)cc(OC)c1OC
- GI50 (786-0): > 100 µM (inactive)
- GI50 (A498): > 100 µM (inactive)
- GI50 (A549): > 100 µM (inactive)
- GI50 (ACHN): > 100 µM (inactive)
- GI50 (CAKI-1): > 100 µM (inactive)
- GI50 (CCRF-CEM): > 100 µM (inactive)
- GI50 (COLO 205): > 100 µM (inactive)
- GI50 (DLD-1): > 100 µM (inactive)
- GI50 (DMS-114): 27.9 µM (inactive)
- GI50 (EKVX): > 100 µM (inactive)
- GI50 (HCC 2998): > 100 µM (inactive)
- GI50 (HCT-116): > 100 µM (inactive)
- GI50 (HCT-15): > 100 µM
- GI50 (HL-60): > 100 µM (inactive)
- GI50 (HOP-18): > 100 µM (inactive)
- GI50 (HOP-62): > 100 µM (inactive)
- GI50 (HOP-92): > 100 µM (inactive)
- GI50 (HT-29): > 100 µM (inactive)
- GI50 (IGROV-1): > 100 µM (inactive)
- GI50 (K562): 93.5 µM (inactive)
- GI50 (KM-20L2): > 100 µM (inactive)
- GI50 (KM12): 68.4 µM (inactive)
- GI50 (LOX IMVI): > 10 µM (inactive)
- GI50 (LXFL 529): > 100 µM (inactive)
- GI50 (M14): > 100 µM (inactive)
- GI50 (M19-MEL): > 100 µM (inactive)
- GI50 (MOLT-4): > 100 µM (inactive)
- GI50 (Malme-3M): > 100 µM (inactive)
- GI50 (NCI-H226): > 100 µM (inactive)
- GI50 (NCI-H23): > 100 µM (inactive)
- GI50 (NCI-H460): 73.3 µM (inactive)
- GI50 (NCI-H522): > 100 µM (inactive)
- GI50 (OVCAR-3): > 100 µM (inactive)
- GI50 (OVCAR-4): > 100 µM (inactive)
- GI50 (OVCAR-5): > 100 µM (inactive)
- GI50 (OVCAR-8): > 100 µM (inactive)
- GI50 (RPMI-8226): 44 µM (inactive)
- GI50 (RXF 393): 62.5 µM (inactive)
- GI50 (RXF 631): 53.7 µM (inactive)
- GI50 (SF-268): > 100 µM (inactive)
- GI50 (SF-295): > 100 µM (inactive)
- GI50 (SF-539): > 100 µM (inactive)
- GI50 (SK-MEL-28): > 100 µM (inactive)
- GI50 (SK-MEL-2): > 100 µM (inactive)
- GI50 (SK-MEL-5): > 100 µM (inactive)
- GI50 (SK-OV-3): > 100 µM (inactive)
- GI50 (SN12C): > 100 µM (inactive)
- GI50 (SNB-19): > 100 µM (inactive)
- GI50 (SNB-75): > 100 µM (inactive)
- GI50 (SNB-78): > 100 µM (inactive)
- GI50 (SW-620): 19.3 µM (inactive)
- GI50 (TK-10): > 100 µM (inactive)
- GI50 (U-251): 46.6 µM (inactive)
- GI50 (UACC-257): > 100 µM (inactive)
- GI50 (UACC-62): > 100 µM (inactive)
- GI50 (UO-31): > 100 µM (inactive)

SMILES: CC(=O)C(CN(CC(C)C)CC(C)C)C(c1ccccc1)c1c(O)c2ccccc2oc1=O (stereo not given)
- GI50 (786-0): > 100 µM (inactive)
- GI50 (A498): > 100 µM (inactive)
- GI50 (A549): > 100 µM (inactive)
- GI50 (ACHN): > 100 µM (inactive)
- GI50 (CAKI-1): > 100 µM (inactive)
- GI50 (CCRF-CEM): > 10 µM (inactive)
- GI50 (COLO 205): > 100 µM (inactive)
- GI50 (DLD-1): > 100 µM (inactive)
- GI50 (DMS-114): > 100 µM (inactive)
- GI50 (EKVX): > 100 µM (inactive)
- GI50 (HCC 2998): > 100 µM (inactive)
- GI50 (HCT-116): > 100 µM (inactive)
- GI50 (HCT-15): > 100 µM
- GI50 (HL-60): > 100 µM (inactive)
- GI50 (HOP-62): > 100 µM (inactive)
- GI50 (HOP-92): > 100 µM (inactive)
- GI50 (HT-29): > 100 µM (inactive)
- GI50 (IGROV-1): > 100 µM (inactive)
- GI50 (K562): > 10 µM (inactive)
- GI50 (KM-20L2): > 100 µM (inactive)
- GI50 (LOX IMVI): > 100 µM (inactive)
- GI50 (LXFL 529): > 100 µM (inactive)
- GI50 (M14): > 100 µM (inactive)
- GI50 (M19-MEL): > 100 µM (inactive)
- GI50 (MOLT-4): > 100 µM (inactive)
- GI50 (Malme-3M): > 100 µM (inactive)
- GI50 (NCI-H226): > 100 µM (inactive)
- GI50 (NCI-H23): > 100 µM (inactive)
- GI50 (NCI-H522): > 100 µM (inactive)
- GI50 (OVCAR-3): > 100 µM (inactive)
- GI50 (OVCAR-4): > 100 µM (inactive)
- GI50 (OVCAR-5): > 100 µM (inactive)
- GI50 (OVCAR-8): > 100 µM (inactive)
- GI50 (RPMI-8226): > 100 µM (inactive)
- GI50 (RXF 393): > 100 µM (inactive)
- GI50 (RXF 631): > 100 µM (inactive)
- GI50 (SF-268): > 100 µM (inactive)
- GI50 (SF-295): > 100 µM (inactive)
- GI50 (SF-539): > 100 µM (inactive)
- GI50 (SK-MEL-28): > 100 µM (inactive)
- GI50 (SK-MEL-2): > 100 µM (inactive)
- GI50 (SK-OV-3): > 100 µM (inactive)
- GI50 (SN12C): > 100 µM (inactive)
- GI50 (SNB-19): > 100 µM (inactive)
- GI50 (SNB-75): > 100 µM (inactive)
- GI50 (SW-620): > 100 µM (inactive)
- GI50 (TK-10): > 100 µM (inactive)
- GI50 (UACC-257): > 100 µM (inactive)
- GI50 (UACC-62): > 100 µM (inactive)
